According to PMC5767004, “Inhibitors of the integrase–transportin-SR2 interaction block HIV nuclear import” (Retrovirology, 2018):
“Also recorded” adds a separate entry of the source.

Tests used:
HIV = conditions: cited from earlier work
[1] = tested on: HIV PIC nuclear import (IN-eGFP labeled virus); assay: PIC nuclear import assay in HeLaP4 cells; assay type: cell-based, HIV-1; conditions: 100 µM hit compound, 5 h after infection, experiment compared to DMSO
[2] = target: T1, HIV-1 IN–TRN-SR2 interaction (UniProt P12497+Q9Y5L0); assay: HIV-1 IN–TRN-SR2 AlphaScreen interaction assay; assay type: binding; conditions: evaluation as positive control, Fig. 2b
T1 construct: N-terminally His6-tagged and untagged IN; made in house; host or cells: E. coli BL21-CodonPlus2 (DE3)
T1 sequence (Q9Y5L0 whole entry, other chains not shown): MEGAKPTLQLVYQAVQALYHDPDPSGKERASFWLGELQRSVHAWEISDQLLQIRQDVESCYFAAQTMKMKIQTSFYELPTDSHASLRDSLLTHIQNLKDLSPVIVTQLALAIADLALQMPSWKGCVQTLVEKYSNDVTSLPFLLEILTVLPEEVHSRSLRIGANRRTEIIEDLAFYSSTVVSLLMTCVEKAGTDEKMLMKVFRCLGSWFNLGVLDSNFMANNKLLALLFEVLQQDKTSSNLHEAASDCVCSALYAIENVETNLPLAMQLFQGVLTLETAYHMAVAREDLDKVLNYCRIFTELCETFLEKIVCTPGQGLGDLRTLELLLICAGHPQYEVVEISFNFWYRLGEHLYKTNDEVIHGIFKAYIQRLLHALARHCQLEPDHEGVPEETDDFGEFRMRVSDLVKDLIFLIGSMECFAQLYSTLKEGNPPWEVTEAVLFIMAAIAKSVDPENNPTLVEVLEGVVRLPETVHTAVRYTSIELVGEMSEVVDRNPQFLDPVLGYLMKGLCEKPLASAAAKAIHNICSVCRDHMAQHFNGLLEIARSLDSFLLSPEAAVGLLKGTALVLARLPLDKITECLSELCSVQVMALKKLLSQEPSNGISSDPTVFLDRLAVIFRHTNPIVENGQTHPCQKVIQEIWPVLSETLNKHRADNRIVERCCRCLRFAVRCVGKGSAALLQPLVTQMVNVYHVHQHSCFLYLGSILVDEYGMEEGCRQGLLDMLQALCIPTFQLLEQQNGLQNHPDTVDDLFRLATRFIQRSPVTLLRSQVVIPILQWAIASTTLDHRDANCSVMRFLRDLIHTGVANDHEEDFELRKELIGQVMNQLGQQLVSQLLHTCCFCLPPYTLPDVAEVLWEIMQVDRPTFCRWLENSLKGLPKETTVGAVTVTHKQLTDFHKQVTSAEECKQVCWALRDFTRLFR
Description: Compound stocks were dissolved at approximately 5 mM in dimethylsulfoxide (DMSO) in 96-well plates. Stocks were first diluted to 125 µM in assay buffer (150 mM NaCl, 25 mM Tris–HCl pH 7.4, 1 mM MgCl2, 0.1% (v/v) Tween-20 and 0.1% (w/v) bovine serum albumin (BSA)) supplemented with 2.5% (v/v) DMSO before 10 µl was transferred to a dry 384-well PS 384-OptiPlate (Perkin Elmer) on a Freedom EVO200 liquid handling robot (Tecan). Untagged TRN-SR2 at 2.5 µM and assay buffer containing 5% DMSO were transferred from a separate 96-well plate to the assay plates and represented the positive and negative controls, respectively. Next, 5 µl each of 5× working dilutions of GST-TRN-SR2 and His6-IN were added using an XRD-384 automated reagent dispenser (FluidX). The plate was left to incubate for 1 h at 7 °C before 5 µl of a glutathione donor and Ni^2+-chelate acceptor AlphaScreen bead mixture (Perkin Elmer) was added. […]
Development of robust high-throughput assays requires optimal buffer conditions in which both proteins and the detection method are stable and reproducible. […] This experience allowed us to readily adapt an assay buffer to meet the requirements for a high-throughput screen (HTS) for inhibitors of the interaction. […]

Cc1[nH]c2ccccc2c1CC(=O)N[C@@H](Cc1ccccc1)C(=O)N(C)c1ccccc1 [PF74, PF-3450074]
Inhibition of reverse transcription (in words) (HIV; higher concentrations (10 µM)): inhibits reverse transcription at higher concentrations
Inhibition of HIV nuclear import (in words) (HIV; low concentrations (2 µM)): known to inhibit nuclear import at low concentrations

Cc1nnc(C(=O)NC(C)(C)c2nc(C(=O)NCc3ccc(F)cc3)c(O)c(=O)n2C)o1 [Ral, Raltegravir]
% nuclear PICs (mean) [1]: 4.5%

Untagged TRN-SR2: untagged recombinant Transportin-SR2 protein, positive control of the AlphaScreen
Inhibition of the IN–TRN-SR2 AlphaScreen signal by untagged protein (titration, in words) [2]: could block the interaction completely; also recorded: did inhibit the signal
